Consider one substance from US20210000879A1, “METHODS AND COMPOSITIONS FOR MRNA-BASED MODULATION AND DETECTION OF CELL PHENOTYPES” (Georgia Tech Research Corporation, priority 2018, published 2021).

Series [1] deals with neonatal rat ventricular cardiomyocytes. Description: TBX18 IVT mRNA entry by qPCR normalized to GAPDH. It counts as cell-based. To be noted: 333 ng mRNA with ViroMer Red, 96-well plate. The protocol: Freshly-isolated neonatal rat ventricular cardiomyocytes were transfected with IVT mRNA for human TBX18 gene. Somatic gene transfer was performed by adding 333 ng of TBX18 IVT mRNA with a transfection reagent, ViroMer Red, to a well in a 96-well plate seeded with the neonatal rat ventricular cardiomyocytes. TBX18 IVT mRNA that successfully entered the cardiomyocytes were quantitated by quantitative real-time PCR (qPCR), and the TBX18 mRNA level was normalized to an endogenous housekeeping gene, GAPDH, over time.
For orientation: In qPCR the cycle at which signal appears reflects the starting amount.

The test system is the same in series [2]. Description: TBX18 protein expression by immunoblot normalized to GAPDH. Particulars: 333 ng mRNA with ViroMer Red, 96-well plate. It counts as cell-based. The protocol: Freshly-isolated neonatal rat ventricular cardiomyocytes were transfected with IVT mRNA for human TBX18 gene. Somatic gene transfer was performed by adding 333 ng of TBX18 IVT mRNA with a transfection reagent, ViroMer Red, to a well in a 96-well plate seeded with the neonatal rat ventricular cardiomyocytes. TBX18 protein expression from the transfected IVT mRNA in the cardiomyocytes were quantitated by specific antibodies to TBX18 on immunoblots and normalized to an endogenous housekeeping protein, GAPDH. […] The TBX18 protein expression was also transient, in line with the expression kinetics of the delivered mRNA. This transient expression of TBX18 closely mimicked its native expression during embryonic development, and is ideal for the intended purpose as a reprogramming agent to convert ordinary heart muscle cells to specialized cardiac pacemaker cells. In FIG. 12, D denotes days after transfection, and each time point consists of two technical replicates.
In general terms: A western blot detects proteins with antibodies after separation by electrophoresis.

Series [3] has the same test system. Description: Nuclear localization of TBX18 (FLAG) by immunostaining. It counts as cell-based. To be noted: 24 hrs post-transfection. An excerpt: TBX18 is a transcription factor, and thus should be targeted to the nuclei upon proper translation from mRNA. Freshly-isolated neonatal rat ventricular cardiomyocytes were transfected with IVT mRNA for human TBX18 gene. TBX18 mRNA was designed with a tag peptide (DYKDDDDK (SEQ ID NO:9, also known as a “FLAG” epitope) fused to the C-terminal end of TBX18 for subcellular identification of TBX18 with an antibody against FLAG. Sarcomeric alpha-actinin (α-SA) and DAPI label cardiomyocytes and all nuclei, respectively. Arrows (co-localization of FLAG and DAPI) indicate nuclear localization of TBX18 protein. Three transfection conditions were tested in a 24-well plate, and immunostaining was performed at 24 hrs post-transfection.

Series [4] deals with neonatal rat ventricular myocytes. Description: Spontaneous electrical activity on multi-electrode array. Format: cell-based. Particulars: control cardiomyocytes: infrequent and low rate activity. The method, then: Spontaneous electrical activity from neonatal rat ventricular myocytes were recorded on a non-invasive, multi-electrode array platform. […] The number of electrical activity (Count) was plotted as a function of spontaneous beating rates (in beats per minute, BPM) of the cardiomyocytes.

Series [5] has as its system complete atrioventricular block (CAVB) model in rats. Description: 3-lead surface ECG in rat complete atrioventricular block model. It counts as in vivo. The protocol:
(§1) The inventors next studied the effects of administering TBX18 mRNA to a rat model of a complete atrioventricular block. […] In this study, the inventors created a complete atrioventricular block (CAVB) model in rats and monitored the rats for one week to confirm stable and persistent CAVB. Next, TBX18 mRNA was injected into the ventricular apex of each rat and a telemetry device was implanted. Some rats received a high dose of TBX18 mRNA, which was 300 μg TBX mRNA with 205 μl RNA free PBS. The inventors continuously monitored and recorded data from the telemetry device including electrocardiograms for 21 days. The inventors performed 3-lead surface ECGs on anesthetized animals on days 7, 14 and 21 with an isoproterenol challenge, and harvested the heart on day 21.
The inventors determined if there was antegrade conduction (meaning that the direction of cardiac conduction occurred from the SA node, AV node and down toward the apex of the heart) or retrograde conduction (meaning that the direction of cardiac conduction occurred from the site of TBX18 delivery which was the apex of the left ventricle). In order to determine this, the inventors determined a baseline ECG under anesthesia before TBX18 mRNA injection by recording three-lead surface ECGs for ten minutes while the rat was asleep under anesthesia. Recordings confirmed the presence of AV conduction block with multiple P waves between each QRS complex, inconsistent P-R intervals, and a relatively low heart rate of 100 bpm, compared to a healthy rate of over 300 bpm for rats.

Series [6] shares this test system. Briefly: Telemetry ECG in conscious rats with complete atrioventricular block. Format: in vivo, rat. To be noted: for heart rate during isoproterenol treatment: conscious. The protocol:
as §1
ECG data was then compared with telemetry data. Before injection of TBX18 mRNA, telemetry biopotential electrodes were sutured to the chest wall and housed in the abdominal cavity of the rat. Telemetry 2-lead ECG signal was recorded wirelessly for conscious, awake rats. The day before injection of TBX18 mRNA, AV block was present in ECG recordings with an average heart rate of 120 bpm, and these values were used as the baseline.

Series [7] relates to rat model of complete heart block. Description: Effect of TGF-beta small molecule inhibitor on ventricular pacing with TBX18 mRNA. It counts as in vivo. Particulars: A83-01 released by osmotic pump. The protocol: On Day 0, an osmotic pump releasing A83-01 (a TGF-beta inhibitor, Sigma Aldrich) was implanted into the rats. On Day 1, TBX18 mRNA was injected into the rats and a telemetry device was also implanted. Two doses of TBX18 mRNA were given to the rats: (i) a low dose of 100 μg TBX18 mRNA with 68.4 μl RNA-free phosphate-buffered saline (PBS), or (ii) a high dose of 300 μg TBX18 mRNA with 205 μl RNA-free PBS. A continuous telemetry recording of each rat's electrocardiogram (ECG) was made for 21 days after implantation of the telemetry device. In addition, 3-lead surface ECGs were performed on anesthetized animals on Days 7, 14, and 21 along with an isoproterenol challenge. The heart was harvested from each animal on Day 21.
The inventors then determined the effects of including a TGF-beta small molecule inhibitor on ventricular pacing with TBX18 mRNA (FIG. 16).

The subject of series [8] is porcine model of complete heart block. Description: Porcine model of complete heart block. Format: in vivo, pig. From the text: The inventors next sought to test the TBX18 mRNA in a large animal model, specifically a porcine model, of complete heart block. The inventors used a control of GFP mRNA+A83-01. On Day 1, the inventors created an intracardiac map by implanting a pacemaker and administered the TBX18 mRNA or control. Weeks 2, 4, and 6 after administration included an interrogation of the pacemaker and an isoproterenol challenge to measure the animals' maximum heart rate (max HR). In Week 6, arrythmia testing and intracardiac mapping were performed and vital organs were harvested. […] The proper diurnal response in TBX18-injected pig is in line with the average heart rate data from FIG. 18.

In the case of “TBX18 mRNA: IVT mRNA for human TBX18 gene, with FLAG tag peptide fused to the C-terminal end of TBX18”, in series [1], the “entry of IVT mRNA into cardiomyocytes” value was “efficient entry”. In addition, the “time post-transfection to TBX18 protein expression” value in series [2] is reported as “less than 6 hours”. Besides, the “cardiomyocytes positive for nuclear TBX18 (FLAG positive)” value in series [3] (0.5 μg of IVT mRNA+0.2 μl of ViroMer Red) came out at 4%; in series [3] (1 μg of IVT mRNA+0.1 μl of ViroMer Red), 2%; in series [3] (1 μg of IVT mRNA+0.2 μl of ViroMer Red), 21%. In addition, the spontaneous pacemaker activity result in series [4] is “highly active, high rate pacemaker activity”. For the same substance, the biological cardiac pacing entry in series [5] (focal intramyocardial injection into ventricular apex) is “created in vivo biological cardiac pacing”. In addition, the “conduction vector (cardiac axis mapping)” value in series [5] (one week after injection, baseline 77 degrees) turned out to be 49 degrees. Further, the “heart rate with isoproterenol” value in series [5] (one week after injection, isoproterenol challenge) is 229 bpm. Moreover, the average heart rate in series [5] (one week after injection, under anesthesia, baseline 100 bpm) came out at 120 bpm; in series [5] (three weeks after injection), 137 bpm. In addition, the “conduction vector of normal QRS complexes” value in series [5] (three weeks after injection, anterograde) is listed as 48 degrees. The “conduction vector of transient QRS complexes with isoproterenol” value in series [5] (three weeks after injection, isoproterenol, retrograde) is −110 degrees. Further, the “conduction vector of PVCs” value in series [5] (three weeks after injection, retrograde) is on record as −116 degrees. Also, the “ventricular pacing by continuous recording of heart rate and heart rate histograms” value in series [6] (histograms on Days 21 after injection) is recorded as “created ventricular pacing”. Also, the “heart rate during isoproterenol treatment” value in series [6] (one week after delivery, baseline 120 bpm) was 265 bpm; in series [6] (three weeks after delivery), 260 bpm; in series [6] (two weeks after delivery), 206 bpm. The “effect on ventricular pacing / block” value in series [7] is given as “created a complete ventricular block”. The “R-R interval as the pig becomes awake in the morning” value in series [8] (diurnal response) is “shorter R-R interval (faster heart rate)”. For the same substance, in series [8] (pig, in vivo), the “time after delivery within which ventricular pacing was created” value fell in the range of 7 to 10 days.
